Target: human Cav2.2 (Homo sapiens, UniProt Q00975)
Test: Assessment of calcium channel activity using FLIPR (Ca2+ influx in IMR32 cells)
Type: cell-based
Conditions: 60 minute pre-incubation with compound, 2 μM nifedipine, depolarized with 80 mM KCl
Outline: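 IMR32 neuroblastoma cells seeded at 1-1.2×10^5 cells/well and grown 48 h at 37 °C before FLIPR Ca2+ influx read. Percent inhibition at each concentration vs no-inhibitor activity; IC50 by non-linear sigmoidal dose-response fit.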

human Cav2.2, sequence (Q00975 whole entry): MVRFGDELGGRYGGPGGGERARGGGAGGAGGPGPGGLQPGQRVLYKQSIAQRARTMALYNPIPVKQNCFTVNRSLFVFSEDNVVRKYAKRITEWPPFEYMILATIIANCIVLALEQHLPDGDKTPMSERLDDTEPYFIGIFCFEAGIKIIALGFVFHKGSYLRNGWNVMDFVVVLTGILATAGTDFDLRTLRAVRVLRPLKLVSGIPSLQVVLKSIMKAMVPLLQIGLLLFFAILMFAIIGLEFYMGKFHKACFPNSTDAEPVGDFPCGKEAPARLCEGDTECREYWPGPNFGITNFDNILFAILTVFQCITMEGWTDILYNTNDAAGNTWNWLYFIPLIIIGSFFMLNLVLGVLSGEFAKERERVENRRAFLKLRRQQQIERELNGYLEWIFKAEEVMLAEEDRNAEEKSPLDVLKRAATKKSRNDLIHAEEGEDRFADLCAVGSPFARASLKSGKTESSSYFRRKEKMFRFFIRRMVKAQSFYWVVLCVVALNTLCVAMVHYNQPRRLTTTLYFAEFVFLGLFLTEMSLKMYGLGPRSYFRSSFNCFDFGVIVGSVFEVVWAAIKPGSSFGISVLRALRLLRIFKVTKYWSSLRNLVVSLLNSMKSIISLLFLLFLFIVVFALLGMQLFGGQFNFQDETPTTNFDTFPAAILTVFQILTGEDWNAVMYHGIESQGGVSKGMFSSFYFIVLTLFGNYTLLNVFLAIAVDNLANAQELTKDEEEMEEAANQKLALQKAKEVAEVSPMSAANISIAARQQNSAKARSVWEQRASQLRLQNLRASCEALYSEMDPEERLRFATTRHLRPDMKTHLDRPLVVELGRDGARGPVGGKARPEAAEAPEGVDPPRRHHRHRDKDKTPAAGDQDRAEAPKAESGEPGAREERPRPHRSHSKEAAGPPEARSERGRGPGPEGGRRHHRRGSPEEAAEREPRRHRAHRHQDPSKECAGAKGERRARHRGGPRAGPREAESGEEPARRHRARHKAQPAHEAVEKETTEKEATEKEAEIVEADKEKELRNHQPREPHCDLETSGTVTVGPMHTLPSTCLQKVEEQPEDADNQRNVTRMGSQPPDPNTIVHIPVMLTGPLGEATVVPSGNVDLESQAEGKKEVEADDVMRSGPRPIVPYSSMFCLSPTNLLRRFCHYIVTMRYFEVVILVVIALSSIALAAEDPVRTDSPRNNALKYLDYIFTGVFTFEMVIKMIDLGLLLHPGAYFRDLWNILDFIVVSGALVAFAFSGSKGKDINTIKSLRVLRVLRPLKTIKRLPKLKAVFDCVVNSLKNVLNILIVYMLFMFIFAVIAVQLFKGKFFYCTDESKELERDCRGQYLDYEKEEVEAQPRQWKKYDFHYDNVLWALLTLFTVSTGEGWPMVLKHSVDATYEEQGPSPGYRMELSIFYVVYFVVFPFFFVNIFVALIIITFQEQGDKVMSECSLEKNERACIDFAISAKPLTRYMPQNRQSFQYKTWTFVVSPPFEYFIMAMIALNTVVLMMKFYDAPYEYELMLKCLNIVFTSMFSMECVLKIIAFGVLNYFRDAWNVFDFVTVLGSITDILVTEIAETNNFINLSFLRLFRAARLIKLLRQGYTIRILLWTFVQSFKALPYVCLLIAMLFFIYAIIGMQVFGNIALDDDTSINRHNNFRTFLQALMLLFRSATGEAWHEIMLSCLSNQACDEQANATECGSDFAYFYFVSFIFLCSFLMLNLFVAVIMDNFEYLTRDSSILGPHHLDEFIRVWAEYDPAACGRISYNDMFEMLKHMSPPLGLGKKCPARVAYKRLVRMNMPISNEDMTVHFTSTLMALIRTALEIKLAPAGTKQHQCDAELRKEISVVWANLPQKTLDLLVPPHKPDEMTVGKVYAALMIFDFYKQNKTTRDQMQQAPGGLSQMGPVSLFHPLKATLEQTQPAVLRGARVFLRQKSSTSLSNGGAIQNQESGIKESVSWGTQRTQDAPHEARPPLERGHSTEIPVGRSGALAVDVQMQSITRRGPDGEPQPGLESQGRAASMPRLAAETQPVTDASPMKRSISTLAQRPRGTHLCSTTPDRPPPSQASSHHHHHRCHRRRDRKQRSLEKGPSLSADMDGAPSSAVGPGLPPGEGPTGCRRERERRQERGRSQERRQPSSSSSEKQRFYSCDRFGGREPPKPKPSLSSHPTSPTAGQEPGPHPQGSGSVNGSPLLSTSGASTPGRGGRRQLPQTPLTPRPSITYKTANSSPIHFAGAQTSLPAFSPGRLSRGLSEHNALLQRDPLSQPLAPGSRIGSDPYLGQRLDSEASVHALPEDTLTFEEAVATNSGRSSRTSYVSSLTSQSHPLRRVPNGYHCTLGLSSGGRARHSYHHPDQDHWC
human Cav2.2, sequence (P54289 25-946 partner limits assumed): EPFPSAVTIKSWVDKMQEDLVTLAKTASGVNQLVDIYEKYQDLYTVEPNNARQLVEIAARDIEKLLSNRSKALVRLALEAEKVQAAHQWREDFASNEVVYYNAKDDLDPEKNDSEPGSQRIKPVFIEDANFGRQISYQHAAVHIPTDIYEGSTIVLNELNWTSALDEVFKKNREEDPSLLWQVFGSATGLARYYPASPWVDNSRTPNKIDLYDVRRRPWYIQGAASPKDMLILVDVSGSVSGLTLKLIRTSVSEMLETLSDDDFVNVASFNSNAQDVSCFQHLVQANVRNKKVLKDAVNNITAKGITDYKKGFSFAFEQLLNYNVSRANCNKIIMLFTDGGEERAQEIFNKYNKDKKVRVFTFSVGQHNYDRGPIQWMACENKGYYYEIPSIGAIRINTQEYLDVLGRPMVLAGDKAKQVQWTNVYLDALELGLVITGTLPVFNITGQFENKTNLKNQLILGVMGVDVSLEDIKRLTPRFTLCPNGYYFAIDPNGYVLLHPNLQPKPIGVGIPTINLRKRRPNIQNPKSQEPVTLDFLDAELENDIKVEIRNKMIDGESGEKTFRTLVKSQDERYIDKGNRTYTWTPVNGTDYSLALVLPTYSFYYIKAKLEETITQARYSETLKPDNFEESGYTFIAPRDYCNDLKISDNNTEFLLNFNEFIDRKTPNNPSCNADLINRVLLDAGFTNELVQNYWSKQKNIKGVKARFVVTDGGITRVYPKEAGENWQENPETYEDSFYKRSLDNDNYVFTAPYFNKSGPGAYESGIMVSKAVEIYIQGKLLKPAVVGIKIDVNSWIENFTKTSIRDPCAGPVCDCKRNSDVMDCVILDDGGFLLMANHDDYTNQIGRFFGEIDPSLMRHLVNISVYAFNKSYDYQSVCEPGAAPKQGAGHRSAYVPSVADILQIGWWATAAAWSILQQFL
human Cav2.2, sequence (P54289 947-1103 partner limits assumed): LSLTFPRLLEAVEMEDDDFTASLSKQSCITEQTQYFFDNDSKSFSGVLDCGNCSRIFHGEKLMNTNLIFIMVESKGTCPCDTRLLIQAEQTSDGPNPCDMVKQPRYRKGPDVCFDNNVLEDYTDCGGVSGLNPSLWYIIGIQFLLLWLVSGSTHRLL
human Cav2.2, sequence (P54284 whole entry partner): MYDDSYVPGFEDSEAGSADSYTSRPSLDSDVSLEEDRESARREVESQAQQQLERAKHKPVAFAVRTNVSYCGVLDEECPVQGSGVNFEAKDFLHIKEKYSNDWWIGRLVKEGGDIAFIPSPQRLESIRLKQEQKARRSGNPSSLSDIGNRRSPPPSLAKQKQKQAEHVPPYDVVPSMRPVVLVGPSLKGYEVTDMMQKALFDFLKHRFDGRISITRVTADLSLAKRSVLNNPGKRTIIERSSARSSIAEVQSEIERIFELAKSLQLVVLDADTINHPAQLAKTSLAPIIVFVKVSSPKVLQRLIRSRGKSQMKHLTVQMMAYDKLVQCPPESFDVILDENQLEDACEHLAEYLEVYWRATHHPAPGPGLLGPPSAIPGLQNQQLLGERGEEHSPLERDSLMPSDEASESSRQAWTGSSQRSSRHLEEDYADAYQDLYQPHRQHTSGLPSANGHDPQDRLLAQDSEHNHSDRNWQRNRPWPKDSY

In order of rising IC50:
1. CC(C)N[C@@H](CC(C)(C)C)C(=O)N[C@H]1CC[C@@H]2CN(c3cccc(C(F)(F)F)n3)C[C@@H]21 [Example 491, N^2-isopropyl-4-methyl-N^1-{(3aR,4S,6aS)-2-[6-(trifluoromethyl)pyridin-2-yl]octahydrocyclopenta[c]pyrrol-4-yl}-L-leucinamide]  0.26 µM
2. CCC[C@H](NC(C)C)C(=O)N[C@H]1CC[C@@H]2CN(S(=O)(=O)c3cccc(C(F)(F)F)c3)C[C@@H]21 [Example 483, N^2-isopropyl-N^1-((3aR,4S,6aS)-2-{[3-(trifluoromethyl)phenyl]sulfonyl}octahydrocyclopenta[c]pyrrol-4-yl)-L-norvalinamide]  0.49 µM
3. CC(C)C[C@H](NC(C)C)C(=O)N[C@H]1CC[C@@H]2CN(S(=O)(=O)c3cccc(C(F)(F)F)c3)C[C@@H]21 [Example 496, N^2-isopropyl-N^1-((3aR,4S,6aS)-2-{[3-(trifluoromethyl)phenyl]sulfonyl}octahydrocyclopenta[c]pyrrol-4-yl)-L-leucinamide]  0.53 µM
4. CC(C)N[C@@H](CC(C)(C)C)C(=O)N[C@H]1CC[C@@H]2CN(S(=O)(=O)c3ccc(C(F)(F)F)cc3Cl)C[C@@H]21 [Example 487, N^1-((3aR,4S,6aS)-2-{[2-chloro-4-(trifluoromethyl)phenyl]sulfonyl}octahydrocyclopenta[c]pyrrol-4-yl)-N^2-isopropyl-4-methyl-L-leucinamide]  0.56 µM
5. CC(C)C[C@@H](C(=O)N[C@H]1CC[C@@H]2CN(S(=O)(=O)c3cccc(C(F)(F)F)c3)C[C@@H]21)N(C)C [Example 497, N^2,N^2-dimethyl-N^1-((3aR,4S,6aS)-2-{[3-(trifluoromethyl)phenyl]sulfonyl}octahydrocyclopenta[c]pyrrol-4-yl)-L-leucinamide]  0.57 µM
6. CC(C)(C)C[C@H](NCC1CC1)C(=O)N[C@H]1CC[C@@H]2CN(S(=O)(=O)c3ccc(C(F)(F)F)cc3)C[C@@H]21 [Example 471, N^2-(cyclopropylmethyl)-4-methyl-N^1-((3aR,4S,6aS)-2-{[4-(trifluoromethyl)phenyl]sulfonyl}octahydrocyclopenta[c]pyrrol-4-yl)-L-leucinamide]  0.65 µM
7. CC(C)(C)C[C@H](NC1CCCC1)C(=O)N[C@H]1CC[C@@H]2CN(S(=O)(=O)c3ccc(C(F)(F)F)cc3)C[C@@H]21 [Example 501, N^2-cyclopentyl-4-methyl-N^1-((3aR,4S,6aS)-2-{[4-(trifluoromethyl)phenyl]sulfonyl}octahydrocyclopenta[c]pyrrol-4-yl)-L-leucinamide]  0.82 µM
8. CCC[C@H](NC(C)C)C(=O)N[C@@H]1CC[C@H]2CN(S(=O)(=O)c3cccc(C(F)(F)F)c3)C[C@H]21 [Example 484, N^2-isopropyl-N^1-((3aS,4R,6aR)-2-{[3-(trifluoromethyl)phenyl]sulfonyl}octahydrocyclopenta[c]pyrrol-4-yl)-L-norvalinamide]  0.97 µM
9. CCCN[C@@H](CC(C)(C)C)C(=O)N[C@H]1CC[C@@H]2CN(S(=O)(=O)c3ccc(C(F)(F)F)cc3)C[C@@H]21 [Example 470, 4-methyl-N^2-propyl-N^1-((3aR,4S,6aS)-2-{[4-(trifluoromethyl)phenyl]sulfonyl}octahydrocyclopenta[c]pyrrol-4-yl)-L-leucinamide]  1.03 µM
10. CC(C)N[C@@H](CC(C)(C)C)C(=O)N[C@H]1CC[C@@H]2CN(S(=O)(=O)c3cc(C(F)(F)F)ccc3Cl)C[C@@H]21 [Example 486, N^1-((3aR,4S,6aS)-2-{[2-chloro-5-(trifluoromethyl)phenyl]sulfonyl}octahydrocyclopenta[c]pyrrol-4-yl)-N^2-isopropyl-4-methyl-L-leucinamide]  1.21 µM
11. CC(C)(C)C[C@H](NCC1CCC1)C(=O)N[C@H]1CC[C@@H]2CN(S(=O)(=O)c3ccc(C(F)(F)F)cc3)C[C@@H]21 [Example 472, N^2-(cyclobutylmethyl)-4-methyl-N^1-((3aR,4S,6aS)-2-{[4-(trifluoromethyl)phenyl]sulfonyl}octahydrocyclopenta[c]pyrrol-4-yl)-L-leucinamide]  1.27 µM
12. CCCCN[C@@H](CC(C)(C)C)C(=O)N[C@H]1CC[C@@H]2CN(S(=O)(=O)c3ccc(C(F)(F)F)cc3)C[C@@H]21 [Example 476, N^2-butyl-4-methyl-N^1-((3aR,4S,6aS)-2-{[4-(trifluoromethyl)phenyl]sulfonyl}octahydrocyclopenta[c]pyrrol-4-yl)-L-leucinamide]  1.31 µM
13. CN[C@@H](CC(C)C)C(=O)N1C[C@H]2CC[C@H](NC(=O)C(c3ccc(F)cc3)c3ccc(F)cc3)[C@H]2C1 [Example 459, 2,2-bis(4-fluorophenyl)-N-[(3aR,4S,6aS)-2-(N-methyl-L-leucyl)octahydrocyclopenta[c]pyrrol-4-yl]acetamide]  1.62 µM
14. CC(C)(C)C[C@H](NCC1CCCC1)C(=O)N[C@H]1CC[C@@H]2CN(S(=O)(=O)c3ccc(C(F)(F)F)cc3)C[C@@H]21 [Example 474, N^2-(cyclopentylmethyl)-4-methyl-N^1-((3aR,4S,6aS)-2-{[4-(trifluoromethyl)phenyl]sulfonyl}octahydrocyclopenta[c]pyrrol-4-yl)-L-leucinamide]  1.74 µM
15. CC(C)(C)C[C@H](NCC1CCCCC1)C(=O)N[C@H]1CC[C@@H]2CN(S(=O)(=O)c3ccc(C(F)(F)F)cc3)C[C@@H]21 [Example 475, N^2-(cyclohexylmethyl)-4-methyl-N^1-((3aR,4S,6aS)-2-{[4-(trifluoromethyl)phenyl]sulfonyl}octahydrocyclopenta[c]pyrrol-4-yl)-L-leucinamide]  1.84 µM
16. CN[C@@H](CC(C)(C)C)C(=O)N1C[C@H]2CC[C@H](NC(=O)C(c3ccc(F)cc3)c3ccc(F)cc3)[C@H]2C1 [Example 461, N-[(3aR,4S,6aS)-2-(N,4-dimethyl-L-leucyl)octahydrocyclopenta[e]pyrrol-4-yl]-2,2-bis(4-fluorophenyl)acetamide]  1.88 µM
17. CCN[C@@H](CC(C)(C)C)C(=O)N[C@H]1CC[C@@H]2CN(S(=O)(=O)c3ccc(C(F)(F)F)cc3)C[C@@H]21 [Example 477, N^2-ethyl-4-methyl-N^1-((3aR,4S,6aS)-2-{[4-(trifluoromethyl)phenyl]sulfonyl}octahydrocyclopenta[c]pyrrol-4-yl)-L-leucinamide]  1.88 µM
18. CCC[C@H](NC(C)C)C(=O)N[C@@H]1CC[C@H]2CN(S(=O)(=O)c3ccc(C(F)(F)F)cc3)C[C@H]21 [Example 482, N^2-isopropyl-N^1-((3aS,4R,6aR)-2-{[4-(trifluoromethyl)phenyl]sulfonyl}octahydrocyclopenta[c]pyrrol-4-yl)-L-norvalinamide]  1.97 µM
19. CC(C)N[C@@H](CC(C)(C)C)C(=O)N1C[C@H]2CC[C@H](NC(=O)C(c3ccc(F)cc3)c3ccc(F)cc3)[C@H]2C1 [Example 492, 2,2-bis(4-fluorophenyl)-N-[(3aR,4S,6aS)-2-(N-isopropyl-4-methyl-L-leucyl)octahydrocyclopenta[c]pyrrol-4-yl]acetamide]  2 µM
20. CN[C@@H](CC(C)C)C(=O)N[C@@H]1CC[C@H]2CN(C(c3ccccc3)c3ccccc3)C[C@H]21 [Example 469, N^1-[(3aS,4R,6aR)-2-benzhydryloctahydrocyclopenta[c]pyrrol-4-yl]-N^2-methyl-L-leucinamide]  2.24 µM
21. CCC[C@H](NC(C)C)C(=O)N[C@H]1CC[C@@H]2CN(S(=O)(=O)c3ccc(C(F)(F)F)cc3)C[C@@H]21 [Example 481, N^2-isopropyl-N^1-((3aR,4S,6aS)-2-{[4-(trifluoromethyl)phenyl]sulfonyl}octahydrocyclopenta[c]pyrrol-4-yl)-L-norvalinamide]  2.28 µM
22. FC(F)(F)c1cccc(CN2C[C@H]3CC[C@H](NC(c4ccccc4)c4ccccc4)[C@H]3C2)c1 [Example 466, (3aR,4S,6aS)—N-benzhydryl-2-[3-(trifluoromethyl)benzyl]octahydrocyclopenta[c]pyrrol-4-amine]  2.33 µM
23. CC(C)CN[C@@H](CC(C)(C)C)C(=O)N[C@H]1CC[C@@H]2CN(S(=O)(=O)c3ccc(C(F)(F)F)cc3)C[C@@H]21 [Example 473, N^2-isobutyl-4-methyl-N^1-((3aR,4S,6aS)-2-{[4-(trifluoromethyl)phenyl]sulfonyl}octahydrocyclopenta[c]pyrrol-4-yl)-L-leucinamide]  2.66 µM
24. CCC[C@H](NC)C(=O)N1C[C@H]2CC[C@H](NC(=O)C(c3ccc(F)cc3)c3ccc(F)cc3)[C@H]2C1 [Example 460, 2,2-bis(4-fluorophenyl)-N-[(3aR,4S,6aS)-2-(N-methyl-L-norvalyl)octahydrocyclopenta[c]pyrrol-4-yl]acetamide]  2.69 µM
25. CC(C)(C)C[C@H](NC1CC1)C(=O)N[C@H]1CC[C@@H]2CN(S(=O)(=O)c3ccc(C(F)(F)F)cc3)C[C@@H]21 [Example 499, N^2-cyclopropyl-4-methyl-N^1-((3aR,4S,6aS)-2-{[4-(trifluoromethyl)phenyl]sulfonyl}octahydrocyclopenta[c]pyrrol-4-yl)-L-leucinamide]  2.7 µM
26. CN[C@@H](CC(C)C)C(=O)N[C@H]1CC[C@H]2CN(S(=O)(=O)c3ccc(C(F)(F)F)cc3)C[C@H]21 [Example 457, N^2-methyl-N^1-((3aS,4S,6aR)-2-{[4-(trifluoromethyl)phenyl]sulfonyl}octahydrocyclopenta[c]pyrrol-4-yl)-L-leucinamide]  3.07 µM
27. CCC[C@H](NC)C(=O)N[C@H]1CC[C@@H]2CN(CCC(c3ccc(F)cc3)c3ccc(F)cc3)C[C@@H]21 [Example 458, N^1-{(3aR,4S,6aS)-2-[3,3-bis(4-fluorophenyl)propyl]octahydrocyclopenta[c]pyrrol-4-yl}-N^2-methyl-L-norvalinamide]  3.08 µM
28. CC(C)N[C@@H](CC(C)(C)C)C(=O)N[C@H]1CC[C@@H]2CN(c3ccc(C(F)(F)F)cn3)C[C@@H]21 [Example 490, N^2-isopropyl-4-methyl-N^1-{(3aR,4S,6aS)-2-[5-(trifluoromethyl)pyridin-2-yl]octahydrocyclopenta[c]pyrrol-4-yl}-L-leucinamide]  3.12 µM

— patent US8129417B2, “Substituted octahydrocyclopenta[C]pyrrol-4-amines as calcium channel blockers” (Abbott Laboratories, priority 2008, dated 2012)
